Read-outs that look alike come from different tables or passages of the source.
Experiments:
[1] = test system: hippocampal slice; assay: Epileptic hippocampal slice, 0% Mg+2-induced epilepsy; format: cell-based, Sprague-Dawley albino rat; conditions: Rattus norvegicus, 30 μM Compound No. 6, 0% Mg+2
Source text: Hippocampal slices (450 μ) were obtained from male Sprague-Dawley albino rats (100-325 g). The method of slice preparation has been detailed elsewhere [A. H. Ganong et al., Brain Res., 273, 170-174 (1983)]. Slices were stored in a humidified interface chamber at room temperature and bathed in artificial cerebrospinal fluid (ACSF) which contained (in mM): NaCl 124.0, KCl 5.0, KH2 PO4 1.0, NaHCOP3 26.4, CaCl2, 2.0, MgSO4 1.5 and D-glucose 10.0, and was equilibrated with 95% 02:5% CO2. When needed for study, slices were placed one at a time in a small submersion chamber maintained at 35° C. where they were continuously perfused at 1.0-2.0 ml/min. Fresh solutions reached the recording chamber within 20 seconds and the perfusate was completely changed over within a minute. Additional oxygen and stirring was provided by an air jet (95% O2 :5% CO2) directed at the surface of the ACSF. Standard electrophysiological techniques were employed. Extracellular recording electrodes were glass micropipettes filled with 2.0 M NaCl and broken back to 2.0 m.OMEGA. resistance. All recording was from the somatic region of CA1. […] Intracellular recording electrodes of 60-100 MQ resistance were filled with 2.5 M KAc. […] The Schaffer collateral/commissural fibers were stimulated with tungsten bipolar stimulating electrodes at a rate of 0.03 Hz. The resulting field EPSP (S/C-CA1 EPSP) and the DC potential were amplified by an Axoprobe 1 amplifier and were continuously monitored on a Tektronix 5111A storage oscilloscope and a Gould 2300 chart recorder with a Gould Waveform storage module. Epileptiform activity was induced by omission of Mg++ ions from the perfusate, which removes the Mg++ mediated voltage-dependent block of the NMDA. receptor [B. Ault et al., J. Physiol., 307, 413-428 (1980)], or by the addition of the GABA antagonist picrotoxin. Drugs were added to the perfusate and zero magnesium refers to solutions which contain no added magnesium. The amplitude of the stimulus evoked primary population spike was used to assess the effects of experimental manipulations on the efficacy of synaptic function.

[2] = target: N-methyl-D-aspartate (NMDA) receptor site; assay: Glutamate (NMDA) binding assay, L-[3H]glutamate, synaptic plasma membranes; conditions: L-[3H]glutamate 12.5 nM, pH 7.4, 0-4° C.; read-out: Ki apparent, NMDA
Method: The purpose of this assay is to determine the binding affinity of a compound of Formula I for the N-methyl-D-aspartate (NMDA) receptor site. This procedure was carried out as follows:
Synaptic plasma membranes (SPM) were prepared as previously described [Monahan, J. B. and Michel, J., "Identification and Characterization of an N-methyl-D-aspartate-specific L-[^3 H]glutamate Recognition Site in Synaptic Plasma Membranes, J. Neurochem., 48, 1699-1708 (1987)]. The SPM were stored at a concentration of 10-15 mg/ml in 0.32 M sucrose, 0.5 mM EDTA, 1 mM MgSO4, 5 mM Tris/SO4, pH 7.4, under liquid nitrogen. The identity and purity of the subcellular fractions were confirmed by both electron microscopy and marker enzymes. Protein concentrations were determined by using a modification of the method of Lowry [Ohnishi, S. T. and Barr, J. K., "A Simplified Method of Quantitating Proteins Using the Biuret and Phenol Reagents", Anal. Biochem., 86, 193-197 (1978)]. The SPM were thawed at room temperature, diluted twenty-fold with 50 mM Tris/acetate, pH 7.4, incubated at 37° C. for 30 minutes, and centrifuged at 100,000 g for 15 minutes. The dilution, incubation, and centrifugation was repeated a total of three times. This general method involved adding 12.5 nM of the L-[^3 H]glutamate radioligand to the appropriate concentration of the test compound and initiating the assay by the addition of ice cold SPM (0.2-0.45 mg). The binding assays were performed in 1.5 ml centrifuge tubes with the total volume adjusted to 1.0 ml. Additions of test compounds were made in 50 mM Tris/acetate, pH 7.4 and incubations were carried out at 0°-4° C. The incubation time for the NMDA binding assay was 10 minutes. To terminate the incubation, the samples were centrifuged for 15 minutes at 12,000 g and 4° C. in a Beckman Microfuge 12. The supernatant was aspirated and the pelleted membranes dissolved in Beckman Ready-Protein scintillation cocktail and the samples counted on a Beckman LS 5800 or 3801 liquid scintillation counter with automatic corrections for quenching and counting efficiency. Nonspecific binding was defined as the residual binding in the presence of 0.5 mM NMDA and was typically 15-25% of the total binding in the NMDA binding assay. Radioligand binding to the SPM was analyzed using Scatchard and Hill transformations and the Ki values of the compounds determined using logit-log transformations. Calculations and regression analysis were performed using templates developed for Lotus 1, 2, 3 as previously described [Pullan, L. M. "Automated Radioligand Receptor Binding Analysis with Templates for Lotus", Computer Appln. Biosci., 3 131 (1987)]. Binding results are reported in Table II for example compounds of the invention.

Q: What does the source list for `O=C(O)Cc1c(C(=O)O)[nH]c2cc(Cl)ccc12` [Compound No. 6, 2-carboxy-6-chloro-3-indoleacetic acid]?
A: activity at 30 µM ([1]; read-out: Burst duration): 60%; activity at 30 µM ([1]; read-out: Primary population spike amplitude): 97%; activity at 30 µM ([1]; read-out: Spontaneous activity): 48%; activity at 30 µM ([1]; read-out: Sum of additional population spike amplitude): 70.1%; Ki [2]: > 100 µM

Reference: US5229413A, “Compositions containing indole-2-carboxylate compounds for treatment of CNS disorders” (G. D. Searle & Co., priority 1992, dated 1993)
